Reference: the supplement of paper PMC10307832

What was measured:
Test in all cases: relative viability (nuclei count vs DMSO), 5 days (fraction); higher = more cells survive
Quizartinib + OSI-027 = compound: CC(C)(C)c1cc(NC(=O)Nc2ccc(-c3cn4c(n3)sc3cc(OCCN5CCOCC5)ccc34)cc2)no1 [Quizartinib] + COc1cccc2cc(-c3nc([C@H]4CC[C@H](C(=O)O)CC4)n4ncnc(N)c34)[nH]c12 [OSI-027] (partner 0.5 µM)
Summary of the method: (§1)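 Values are medians from duplicate plates. Each reflects relative viability, defined as the nuclei count of treated wells over that of vehicle wells. Lung cancer cell lines in 1536-well plates were pin-tool dosed one day after seeding with one drug alone or with a fixed anchor-drug dose plus five library-drug doses (not always all listed) in √10 steps, then fixed, stained and imaged at 4× after 5 days.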

Quizartinib + Pictilisib = compound: CC(C)(C)c1cc(NC(=O)Nc2ccc(-c3cn4c(n3)sc3cc(OCCN5CCOCC5)ccc34)cc2)no1 [Quizartinib] + CS(=O)(=O)N1CCN(Cc2cc3nc(-c4cccc5[nH]ncc45)nc(N4CCOCC4)c3s2)CC1 [Pictilisib] (partner 1 µM)
Summary of the method: as §1

Quizartinib + Linsitinib = compound: CC(C)(C)c1cc(NC(=O)Nc2ccc(-c3cn4c(n3)sc3cc(OCCN5CCOCC5)ccc34)cc2)no1 [Quizartinib] + C[C@]1(O)C[C@@H](c2nc(-c3ccc4ccc(-c5ccccc5)nc4c3)c3c(N)nccn32)C1 [Linsitinib] (partner 1 µM)
Summary of the method: as §1

Quizartinib + Tozasertib = compound: CC(C)(C)c1cc(NC(=O)Nc2ccc(-c3cn4c(n3)sc3cc(OCCN5CCOCC5)ccc34)cc2)no1 [Quizartinib] + Cc1cc(Nc2cc(N3CCN(C)CC3)nc(Sc3ccc(NC(=O)C4CC4)cc3)n2)n[nH]1 [Tozasertib] (partner 0.1 µM)
Summary of the method: as §1

Cell Line | relative viability (Quizartinib + OSI-027; first compound 0.001 µM) | relative viability (Quizartinib + OSI-027; first compound 0.003162 µM) | relative viability (Quizartinib + OSI-027; first compound 0.01 µM) | relative viability (Quizartinib + OSI-027; first compound 0.03162 µM) | relative viability (Quizartinib + OSI-027; first compound 0.1 µM) | relative viability (Quizartinib + Pictilisib; first compound 0.001 µM) | relative viability (Quizartinib + Pictilisib; first compound 0.003162 µM) | relative viability (Quizartinib + Pictilisib; first compound 0.01 µM) | relative viability (Quizartinib + Pictilisib; first compound 0.03162 µM) | relative viability (Quizartinib + Pictilisib; first compound 0.1 µM) | relative viability (Quizartinib + Linsitinib; first compound 0.001 µM) | relative viability (Quizartinib + Linsitinib; first compound 0.003162 µM) | relative viability (Quizartinib + Linsitinib; first compound 0.01 µM) | relative viability (Quizartinib + Linsitinib; first compound 0.03162 µM) | relative viability (Quizartinib + Linsitinib; first compound 0.1 µM) | relative viability (Quizartinib + Tozasertib; first compound 0.001 µM) | relative viability (Quizartinib + Tozasertib; first compound 0.003162 µM) | relative viability (Quizartinib + Tozasertib; first compound 0.01 µM) | relative viability (Quizartinib + Tozasertib; first compound 0.03162 µM) | relative viability (Quizartinib + Tozasertib; first compound 0.1 µM)
201T | 0.421 | 0.691 | 0.692 | 0.412 | 0.615 | 0.668 | 0.678 | 0.669 | 0.68 | 0.695 | 1.06 | 1.04 | 0.969 | 1.06 | 1.11 | 0.878 | 0.858 | 0.995 | 0.887 | 0.854
A549 |  |  |  |  |  | 0.457 | 0.441 | 0.598 | 0.211 | 0.614 |  | 0.49 | 0.61 | 0.611 | 0.787 |  |  |  |  | 
A-427 |  | 0.446 | 0.437 | 0.484 | 0.529 | 0.702 | 0.709 | 0.708 | 0.68 | 0.668 | 1.04 | 1.08 | 1.14 | 1.04 | 1.12 |  | 0.204 | 0.191 | 0.204 | 0.189
ABC-1 | 0.428 | 0.472 | 0.495 | 0.383 | 0.415 | 0.502 | 0.683 | 0.648 | 0.626 | 0.769 | 0.662 | 0.732 | 0.702 | 0.675 | 0.722 | 0.184 | 0.179 | 0.172 | 0.205 | 0.183
BEN | 0.259 | 0.326 | 0.325 | 0.282 | 0.284 | 0.499 | 0.613 | 0.55 | 0.496 | 0.543 | 0.739 | 0.779 | 0.903 | 0.815 | 0.712 | 0.48 | 0.504 | 0.562 | 0.54 | 0.39
CAL-12T | 0.658 | 0.683 | 0.862 | 0.503 | 0.846 | 0.47 | 0.536 | 0.308 | 0.398 | 0.547 | 0.744 | 0.771 | 0.976 | 0.882 | 0.986 | 0.32 | 0.283 | 0.315 | 0.234 | 0.199
COR-L23 | 0.743 | 0.73 | 0.946 | 0.696 | 0.768 | 0.535 | 0.758 | 0.698 | 0.589 | 0.763 | 0.829 | 0.9 | 1.05 | 0.748 | 0.92 | 0.175 | 0.178 | 0.159 | 0.116 | 0.139
COR-L 105 | 0.656 | 0.69 | 0.649 | 0.619 | 0.678 | 0.397 | 0.49 | 0.401 | 0.365 | 0.371 | 0.704 | 0.846 | 1.23 | 0.733 | 0.95 | 0.344 | 0.343 | 0.42 | 0.36 | 0.347
Calu-6 |  |  |  |  |  | 0.877 | 0.867 | 0.988 | 0.607 | 0.858 | 0.975 | 0.884 | 0.944 | 0.959 | 0.883 |  |  |  |  | 
ChaGo-K-1 | 0.574 | 0.613 | 0.61 | 0.514 | 0.584 | 0.49 | 0.905 | 0.669 |  | 1.01 |  |  |  |  |  | 0.235 | 0.234 | 0.209 | 0.205 | 0.197
EBC-1 |  |  |  |  |  | 0.423 | 0.285 | 0.406 | 0.37 | 0.452 | 0.801 | 0.972 | 0.956 | 0.989 | 0.948 |  |  |  |  | 
EKVX | 0.43 | 0.691 | 0.656 | 0.674 | 0.728 | 0.464 | 0.478 | 0.471 | 0.407 | 0.476 | 0.92 | 1 | 1.02 | 0.954 | 1.1 | 0.176 | 0.323 | 0.347 | 0.369 | 0.334
EMC-BAC-2 | 0.348 | 0.397 | 0.364 |  | 0.413 | 0.561 | 0.562 | 0.54 | 0.511 | 0.592 | 0.712 | 0.748 | 0.815 | 0.789 | 0.838 | 0.262 | 0.259 | 0.281 |  | 0.282
EPLC-272H | 0.249 | 0.28 | 0.264 | 0.271 | 0.263 | 0.314 | 0.391 | 0.405 | 0.323 | 0.398 | 1.01 | 1.38 | 1.32 | 1.32 | 1.14 | 0.226 | 0.208 | 0.246 | 0.33 | 0.297
H3255 | 0.502 | 0.589 | 0.628 | 0.62 | 0.433 | 0.486 | 0.404 | 0.507 | 0.471 | 0.47 | 0.854 | 0.826 | 1.01 | 0.896 | 1.06 | 0.59 | 0.58 | 0.508 | 0.584 | 0.544
HARA |  | 0.523 | 0.368 | 0.423 | 0.325 | 0.345 | 0.372 | 0.305 | 0.3 | 0.477 | 0.585 | 0.906 | 0.953 | 0.958 | 0.974 |  | 0.101 | 0.102 | 0.0944 | 0.122
HCC-15 |  | 0.71 | 0.583 |  | 0.644 | 0.433 | 0.788 | 0.755 | 0.607 | 0.707 | 0.799 | 0.823 | 0.874 | 0.828 | 0.814 |  | 0.429 | 0.602 | 0.29 | 0.2
HCC-44 |  | 0.641 | 0.416 | 0.475 | 0.549 | 0.669 | 0.516 | 0.56 | 0.626 | 0.555 | 0.639 | 0.647 | 0.695 | 0.69 | 0.632 |  | 0.867 | 0.849 | 0.645 | 0.689
